Results from US9233982B2, “Spiro tetrahydro—benzothiophen derivatives useful for the treatment neurodegenerative diseases” (Ares Trading S.A., priority 2012, dated 2016).
Where a name gives a salt, the structure may show the parent alone.

How the values were obtained:
BACE-1 [1] = biological target: T1, BACE-1 (Homo sapiens, UniProt P56817); assay: HTRF cell based assay, Aβ1-40 peptide secreted by recombinant HEK293 cells; parameters: endogenous in cells; host or cells: recombinant HEK293 cells engineered to over-produce APP; conditions: Aβ1-40 secretion, recombinant HEK293 cells producing APP, overnight treatment; read-out: Cellular assay EC50 Ranges
Description: The cell based assay used to support the program utilized HTRF assay reagents from Cisbio (Catalogue number 62B40PEB) to quantify the amount of Aβ1-40 peptide secreted by recombinant HEK293 cells. The cells were engineered to produce high quantities of APP, the precursor for Aβ1-40 peptide, under hygromycin selection pressure. Briefly, cells were plated into 384-well microplates and allowed to settle for 2 hours prior to compound addition. Following overnight treatment with compound, the media containing secreted peptide was transferred into a low volume assay plate for quantification with HTRF immunoassay reagents. Adhering to the manufacturers protocol for quantification, a TR-FRET signal is obtained in the presence of the Aβ1-40 peptide following addition of a cryptate conjugated antibody and an XL665 conjugated antibody, each raised to a different epitope of the Aβ1-40 peptide. A low FRET signal is obtained when cells are treated with compounds that inhibit APP cleavage and peptide secretion.

BACE-1 [2] = biological target: T1, BACE-1; assay: LanthaScreen BACE1 biochemical assay (TR-FRET)
Description: Biochemical Assay to Assess Compounds for Inhibition of BACE-1
The LanthaScreen™ BACE1 assay kit from Invitrogen (Catalogue number PV4748) was used as the primary assay in the screening cascade.
Briefly, the test compound was incubated with the enzyme and substrate for 1 hour at room temperature in a reaction volume of 15 μl and then 5 nM terbium labelled anti-biotin antibody was added to stop the reaction and the solution incubated for a further 1 hour at room temperature. The microplate was read on an Envision plate reader fitted with a photometric 340 nm excitation filter and the amount of substrate that had been cleaved was represented by the TR-FRET ratio, calculated by dividing the Fluorescein emission signal (520 nm) by the Terbium emission signal (495 nm).

T1 sequence (P56817 46-501): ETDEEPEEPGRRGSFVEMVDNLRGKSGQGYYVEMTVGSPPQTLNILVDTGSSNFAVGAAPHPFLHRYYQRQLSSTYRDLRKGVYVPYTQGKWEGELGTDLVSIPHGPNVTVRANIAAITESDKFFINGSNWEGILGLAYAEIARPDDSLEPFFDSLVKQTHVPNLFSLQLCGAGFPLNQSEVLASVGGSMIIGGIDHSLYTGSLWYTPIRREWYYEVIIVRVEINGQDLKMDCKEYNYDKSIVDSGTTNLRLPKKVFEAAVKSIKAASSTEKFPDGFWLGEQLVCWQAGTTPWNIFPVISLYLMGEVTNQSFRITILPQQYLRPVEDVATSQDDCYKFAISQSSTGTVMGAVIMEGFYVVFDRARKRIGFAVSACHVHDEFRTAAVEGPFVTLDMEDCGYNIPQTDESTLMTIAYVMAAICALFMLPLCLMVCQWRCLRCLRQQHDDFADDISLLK

With COc1cccc(-c2cccc(-c3cc4c(s3)CC(C)(C)CC43CCSC(N)=N3)c2)c1 (stereo not drawn) [Example 41, 2-(3′-methoxybiphenyl-3-yl)-6,6-dimethyl-5′,6,6′,7-tetrahydro-5H-spiro[benzo[b]thiophene-4,4′-[1,3]thiazin]-2′-amine, Formate Salt] the EC50 (BACE-1 [1]) was 5 to 50 µM and the IC50 (BACE-1 [2]) was 1 to 5 µM.

COc1ccc(-c2cccc(-c3cc4c(s3)CC(C)(C)CC43CCSC(N)=N3)c2)cc1 (stereo not drawn) [Example 42] gave an EC50 (BACE-1 [1]) of 5 to 50 µM and an IC50 (BACE-1 [2]) of 1 to 5 µM.

In the case of CC1(C)CCc2sc(-c3cccc(C(F)(F)F)c3)cc2C12CCSC(N)=N2 (stereo not drawn) [Example 46, 5,5-dimethyl-2-(3-(trifluoromethyl)phenyl)-5′,6,6′,7-tetrahydro-5H-spiro[benzo[b]thiophene-4,4′-[1,3]thiazin]-2′-amine], the EC50 (BACE-1 [1]) is reported as 5 to 50 µM and the IC50 (BACE-1 [2]) is reported as 5 to 65 µM.

Compound CN1C(=O)C2(CCCc3sc(-c4cccc(C#N)c4)cc32)N=C1N (stereo not drawn) [Example 49, 3-(2′-amino-1′-methyl-5′-oxo-1′,5′,6,7-tetrahydro-5H-spiro[benzo[b]thiophene-4,4′-imidazole]-2-yl)benzonitrile] has an EC50 (BACE-1 [1]) of no more than 1 µM and an IC50 (BACE-1 [2]) of less than 1 µM.

CN1C(=O)C2(CCCc3sc(-c4cccnc4)cc32)N=C1N (stereo not drawn) [Example 52] was tested, and the EC50 (BACE-1 [1]) was 1 to 5 µM and the IC50 (BACE-1 [2]) was 5 to 65 µM.

CN1C(=O)C2(CCCc3sc(-c4cccc(OC(F)(F)F)c4)cc32)N=C1N (stereo not drawn) [Example 53] was tested, and the EC50 (BACE-1 [1]) was 5 to 50 µM and the IC50 (BACE-1 [2]) was 1 to 5 µM.

With CN1C(=O)C2(CCCc3sc(-c4cccc(C(F)(F)F)c4)cc32)N=C1N (stereo not drawn) [Example 54] the EC50 (BACE-1 [1]) was 1 to 5 µM and the IC50 (BACE-1 [2]) was less than 1 µM.

Compound COc1cc(C#N)cc(-c2cc3c(s2)CCCC32N=C(N)N(C)C2=O)c1 (stereo not drawn) [Example 55] has an EC50 (BACE-1 [1]) of 1 to 5 µM and an IC50 (BACE-1 [2]) of 1 to 5 µM.

In the case of CN1C(=O)C2(CCCc3sc(-c4cccc(Cl)c4)cc32)N=C1N (stereo not drawn) [Example 56], the EC50 (BACE-1 [1]) is reported as 1 to 5 µM and the IC50 (BACE-1 [2]) is reported as 1 to 5 µM.

N#Cc1cccc(-c2cc3c(s2)CCCC32N=C(N)N(Cc3ccccc3)C2=O)c1 (stereo not drawn) [Example 57, 3-(2′-amino-1′-benzyl-5′-oxo-1′,5′,6,7-tetrahydro-5H-spiro[benzo[b]thiophene-4,4′-imidazole]-2-yl)benzonitrile] gave an EC50 (BACE-1 [1]) of 5 to 50 µM and an IC50 (BACE-1 [2]) of less than 1 µM.

CN1OC2(CCCc3sc(-c4cccc(C(F)(F)F)c4)cc32)N=C1N (stereo not drawn) [Example 58, 2′-methyl-2-(3-(trifluoromethyl)phenyl)-6,7-dihydro-2′H,5H-spiro[benzo[b]thiophene-4,5′-[1,2,4]oxadiazol]-3′-amine] showed an EC50 (BACE-1 [1]) of 5 to 50 µM and an IC50 (BACE-1 [2]) of 1 to 5 µM.

NC1=NC2(CCCc3sc(-c4cccc(C(F)(F)F)c4)cc32)ON1Cc1ccccc1 (stereo not drawn) [Example 59] gave an EC50 (BACE-1 [1]) of 5 to 50 µM and an IC50 (BACE-1 [2]) of 1 to 5 µM.

For N#Cc1cccc(-c2cc3c(s2)CCCC32N=C(N)N(Cc3ccccc3)O2)c1 (stereo not drawn) [Example 60], the EC50 (BACE-1 [1]) was 5 to 50 µM and the IC50 (BACE-1 [2]) was less than 1 µM.

For NC1=NC2(CCCc3cc(-c4cccc(-c5ccccc5)c4)sc32)CCS1 (stereo not drawn) [Example 61], the EC50 (BACE-1 [1]) was 5 to 50 µM and the IC50 (BACE-1 [2]) was 1 to 5 µM.

With N#Cc1cccc(-c2cc3c(s2)C2(CCC3)CCSC(N)=N2)c1 (stereo not drawn) [Example 62] the EC50 (BACE-1 [1]) was 5 to 50 µM and the IC50 (BACE-1 [2]) was 5 to 65 µM.
